Test results: US20030055065A1, “Tricyclic amide and urea compounds useful for inhibition of G-protein function and for treatment of proliferative diseases” (priority 1993, published 2003)
Values joined by “and” are separate entries in the source; they are usually repeats but may differ in a detail not shown here. Equal entries are not always repeated. Where two headings read alike, the source gives them in different places.

Columns and labels:
[1] = system: Ras-CVLS processing in COS monkey kidney cells; test: COS cell assay: Ras-CVLS processing (Western blot); format: cell-based; details: COS cells; for IC50: read-out: Inhibition of Ras Processing IC50; for Inhibition of Ras Processing at the concentration in parentheses: (5) μM
How it was run: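 COS cells electroporated with Ras-CVLS (farnesyl transferase substrate) cDNA, with drug-containing fresh medium added at 24 h and cells examined at 48 h. TCA-precipitated cellular protein was resolved by SDS gel and immunoblotted with anti-p21 Ras monoclonal and HRP anti-rat IgG to monitor Ras processing.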

[2] = system: Normal human HEPM fibroblasts; test: Cell Mat Assay: density of mat cells (mIC50); format: cell-based
How it was run: (§1)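 Serial compound dilutions added 24 h after planting T24-BAG4 cells onto a mat of normal cells, then 14 d colony growth; monolayers glutaraldehyde-fixed and tumor cells X-Gal stained. tIC50 and mIC50 from microscope counts of colonies, cells per colony and mat cell density.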

[3] = target: T1, geranylgeranyl protein transferase (GGPT) I (Rattus norvegicus, UniProt P53610+Q04631); test: Inhibition of geranylgeranyl protein transferase I (Ras-CVLL as acceptor); format: biochemical; details: for IC50: enzyme inhibition
T1 construct: were partially purified from rat brain by ammonium sulfate fractionation followed by Q-Sepharose
From the text: 1. In vitro enzyme assays: Inhibition of farnesyl protein transferase and geranylgeranyl protein transferase.
Both farnesyl protein transferase (FPT) and geranylgeranyl protein transferase (GGPT) I were partially purified from rat brain by ammonium sulfate fractionation followed by Q-Sepharose (Pharmacia, Inc.) anion exchange chromatography essentially as described by Yokoyama et al (Yokoyama, K., et al., (1991), A protein geranylgeranyltransferase from bovine brain: Implications for protein prenylation specificity, Proc. Natl. Acad. Sci USA 88: 5302-5306, the disclosure of which is incorporated herein by reference thereto). Human farnesyl protein transferase was also expressed in E. coli, using cDNA clones encoding both the α and β subunits. The methods used were similar to those published (Omer, C. et al., (1993), Characterization of recombinant human farnesyl protein transferase: Cloning, expression, farnesyl diphosphate binding, and functional homology with yeast prenyl-protein transferases, Biochemistry 32:5167-5176). Human farnesyl protein transferase was partially-purified from the soluble protein fraction of E. coli as described above. […] Two forms of val^12-Ha-Ras protein were prepared as substrates for these enzymes, differing in their carboxy terminal sequence. One form terminated in cysteine-valine-leucine-serine (Ras-CVLS) the other in cystein-valine-leucine-leucine (Ras-CVLL). Ras-CVLS is a substrate for the farnesyl protein transferase while Ras-CVLL is a substrate for geranylgeranyl protein transferase I. The cDNAs encoding these proteins were constructed so that the proteins contain an amino-terminal extension of 6 histidine residues. Both proteins were expressed in Escherichia coli and purified using metal chelate affinity chromatography. The radiolabelled isoprenyl pyrophosphate substrates, [^3H]farnesyl pyrophosphate and [3H]geranylgeranyl pyrophosphate, were purchased from DuPont/New England Nuclear.
The geranylgeranyl protein transferase I assay was essentially identical to the farnesyl protein transferase assay described above, with two exceptions: [^3H]geranylgeranylpyrophosphate replaced farnesyl pyrophosphate as the isoprenoid donor and Ras-CVLL was the protein acceptor.

[4] = system: T24-BAG4 human bladder carcinoma cells expressing an activated H-ras gene; test: Cell Mat Assay: tumor cell colony inhibition (tIC50); format: cell-based; details: inhibition of tumor cell growth
How it was run: as §1

[5] = target: T2, farnesyl protein transferase (FPT), partially purified from rat brain (Rattus norvegicus, UniProt Q02293+Q04631); test: Inhibition of farnesyl protein transferase (transfer of [3H]farnesyl to Ras-CVLS); format: biochemical; details: read-out: FPT IC50
T2 construct: were partially purified from rat brain by ammonium sulfate fractionation followed by Q-Sepharose
How it was run: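 Transfer of [3H]farnesyl onto E. coli-expressed, His6-tagged Ras-CVLS was measured after 30 min at room temperature. Radiolabelled Ras was TCA-precipitated on ice and filter-harvested, and inhibition was expressed as percent of DMSO control.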

[6] = Ras-CVLS farnesylation, partially purified rat brain FPT

T1 sequence (P53610 whole entry, one chain of several): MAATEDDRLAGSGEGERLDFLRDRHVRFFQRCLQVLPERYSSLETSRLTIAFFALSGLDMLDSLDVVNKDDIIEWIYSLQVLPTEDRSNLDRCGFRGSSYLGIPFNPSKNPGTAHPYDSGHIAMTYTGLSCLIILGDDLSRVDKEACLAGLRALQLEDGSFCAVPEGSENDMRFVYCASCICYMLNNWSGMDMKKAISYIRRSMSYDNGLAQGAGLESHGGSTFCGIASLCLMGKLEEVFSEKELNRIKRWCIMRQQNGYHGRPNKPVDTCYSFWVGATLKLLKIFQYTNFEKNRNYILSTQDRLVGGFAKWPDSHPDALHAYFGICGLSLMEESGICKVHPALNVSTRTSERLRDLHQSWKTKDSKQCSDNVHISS
T2 sequence (Q02293 whole entry, one chain of several): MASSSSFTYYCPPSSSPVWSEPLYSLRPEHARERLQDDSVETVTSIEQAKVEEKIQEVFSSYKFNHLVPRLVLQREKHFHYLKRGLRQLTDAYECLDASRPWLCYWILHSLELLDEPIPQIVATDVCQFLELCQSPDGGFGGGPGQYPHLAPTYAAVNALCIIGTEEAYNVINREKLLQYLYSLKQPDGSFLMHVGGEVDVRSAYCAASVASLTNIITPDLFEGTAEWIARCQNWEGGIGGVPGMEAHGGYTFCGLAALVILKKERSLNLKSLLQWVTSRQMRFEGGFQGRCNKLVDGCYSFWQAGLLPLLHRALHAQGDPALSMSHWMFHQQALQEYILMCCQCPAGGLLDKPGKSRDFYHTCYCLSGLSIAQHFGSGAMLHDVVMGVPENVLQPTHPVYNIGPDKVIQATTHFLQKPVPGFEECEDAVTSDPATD

| Structure (SMILES) | IC50 [3] | IC50 [5, 6] | IC50 ([2]; Homo sapiens, Fibroblast) | IC50 ([4]; Homo sapiens) | IC50 ([1]; Primates, COS) | IC50 ([5]; enzyme inhibition) | also measured |
| --- | --- | --- | --- | --- | --- | --- | --- |
| O=C(Cc1cc[n+]([O-])cc1)N1CCC(=C2c3ccc(Cl)cc3CCc3cccnc32)CC1 [227 (5.102)] | > 41 µM | – | – | – | – | – | IC50 [1]: 1 µM; IC50 [2]: > 50 µM; IC50 [4]: 4 µM |
| O=C(Cc1ccc(Br)cc1)N1CCN(C2c3ccc(Cl)cc3CCc3cccnc32)CC1 (centres unmarked) [Example 77] | > 39 µM | – | – | – | – | – | IC50 [1]: 9.2 µM; IC50 [2]: > 50 µM; IC50 [4]: > 50 µM |
| O=C(Cc1ccncc1)N1CCC(=C2c3ccc(Cl)cc3CCc3cc(Cl)cnc32)CC1 [Example 180] | > 42 µM | 0.04 µM | 50 µM | 12.5 µM | – | – | IC50 [2]: > 50 µM; IC50 [4]: 18 µM |
| O=C(Cc1cc[n+]([O-])cc1)N1CCC(C2c3ccc(Cl)cc3CCc3cccnc32)CC1 (centres unmarked) [Example 234] | > 43 µM | 0.33 µM | > 50 µM | 3.1 µM | 2.2 µM | – | – |
| CO[C@](C(=O)N1CCC(=C2c3ccc(Cl)cc3CCc3cccnc32)CC1)(c1ccccc1)C(F)(F)F [Example 287] | > 40 µM | 0.72 µM and 5.02 µM | > 50 µM | – | > 10 µM | – | – |
| CC(C)(C(=O)N1CCC(=C2c3ccc(Cl)cc3CCc3cccnc32)CC1)c1ccccc1 [Example 289] | > 40 µM | 1.44 µM and 1.4 µM | > 50 µM | 12.5 µM | > 10 µM | – | IC50 [4]: 18 µM |
| CO[C@@](C(=O)N1CCC(=C2c3ccc(Cl)cc3CCc3cccnc32)CC1)(c1ccccc1)C(F)(F)F [Example 290] | > 38 µM | 3.8 µM and 2.55 µM | > 50 µM | 12.5 µM | – | – | IC50 [4]: 6.25 µM and 8 µM |
| O=C(Nc1ccncc1)N1CCC(=C2c3ccc(Cl)cc3CCc3cccnc32)CC1 [Example 291] | > 46 µM | 0.87 µM | > 50 µM | 18 µM | 3.6 µM | – | – |
| O=C(Nc1cccnc1)N1CCC(=C2c3ccc(Cl)cc3CCc3cccnc32)CC1 [Example 292] | > 44 µM | 0.99 µM | > 50 µM | 6.25 µM | 6.8 µM | – | – |
| O=C(Nc1ccccc1)N1CCC(=C2c3ccc(Cl)cc3CCc3cccnc32)CC1 [Example 293] | > 40 µM | 1.76 µM and 0.47 µM | > 50 µM | 12.5 µM | > 11.1 µM | – | IC50 [1]: 6.5 µM |
| O=C(OC(C(=O)N1CCC(=C2c3ccc(Cl)cc3CCc3cccnc32)CC1)c1ccccc1)c1ccncc1 (centres unmarked) [Example 298] | > 35 µM | 4.58 µM | > 50 µM | > 50 µM | > 9 µM | – | – |
| Cc1cnc2c(c1)CCc1cc(Cl)ccc1C2=C1CCN(C(=O)Cc2cccnc2)CC1 [Example 303] | > 43 µM | 0.55 µM | > 50 µM | 8 µM | 3.4 µM | – | – |
| O=C(Cc1ccncc1)N1CCC(=C2c3cc(Cl)c(Cl)cc3CCc3cccnc32)CC1 [Example 311] | 41.3 µM | 0.61 µM | > 50 µM | 10 µM | 9.5 µM | – | – |
| O=C(Nc1ccccc1)N1CCC(C2c3ccc(Cl)cc3CCc3cccnc32)CC1 (centres unmarked) [Example 312] | > 46 µM | 0.9 µM | > 50 µM | 12.5 µM | 3.8 µM | – | – |
| O=C(Nc1cccnc1)N1CCC(C2c3ccc(Cl)cc3CCc3cccnc32)CC1 (centres unmarked) [Example 313] | > 46 µM | 0.97 µM | > 50 µM | 6.25 µM | 1.5 µM | – | – |
| O=C(Nc1ccncc1)N1CCC(C2c3ccc(Cl)cc3CCc3cccnc32)CC1 (centres unmarked) [Example 314] | > 46 µM | 0.83 µM | > 50 µM | 4 µM | 3 µM | – | – |
| O=C(Nc1cccnc1)N1CCN(C2c3ccc(Cl)cc3CCc3cc(Br)cnc32)CC1 (centres unmarked) [Example 354] | 1000 µM | 0.21 µM | ≥ 25 µM | 6.25 µM | – | – | – |
| O=C(Cc1ccncc1)N1CCC(C2c3ccc(Cl)cc3CCc3cc(Br)cnc32)CC1 (centres unmarked) [Example 400-E] | – | 0.04 µM | 18 µM | < 1.6 µM | – | 0.04 µM | GGPT inhibition at the concentration in parentheses ([3]; (38) μM): 30 (38) |
| O=C(Cc1cc[n+]([O-])cc1)N1CCC(C2c3ccc(Cl)cc3CCc3cc(Br)cnc32)CC1 (centres unmarked) [Example 400-F] | – | 0.036 µM | > 25 µM | < 1.6 µM | – | 0.036 µM | GGPT inhibition at the concentration in parentheses ([3]; (36) μM): 0 (36) |
| CN1CCC(CC(=O)N2CCC(=C3c4ccc(Cl)cc4CCc4cc(Br)cnc43)CC2)CC1 [Example 400-H] | 1000 µM | 0.24 µM | – | – | 2.5 µM | 0.24 µM | Inhibition of Ras Processing at the concentration in parentheses [1]: 100 (5); GGPT inhibition at the concentration in parentheses ([3]; (36) μM): 0 (36) |
| CN1CCCC(CC(=O)N2CCC(=C3c4ccc(Cl)cc4CCc4cc(Br)cnc43)CC2)C1 (centres unmarked) [Example 400-K] | 1000 µM | 0.21 µM | – | – | 2.2 µM | 0.21 µM | Inhibition of Ras Processing at the concentration in parentheses [1]: 100 (5); GGPT inhibition at the concentration in parentheses ([3]; (37) μM): 0 (37) |
| O=C(Cc1ccncc1)N1CCC(=C2c3ccc(Cl)cc3CCc3cc(I)cnc32)CC1 [Example 400] | – | 0.068 µM | > 25 µM | 1.6 µM | – | 0.068 µM | GGPT inhibition at the concentration in parentheses ([3]; (36) μM): 29 (36) |
| O=C(Cc1cc[n+]([O-])cc1)N1CCC(=C2c3ccc(Cl)cc3CCc3cc(I)cnc32)CC1 [Example 401] | 1000 µM | 0.063 µM and 0.08 µM | > 25 µM | < 1.6 µM | – | 0.063 µM and 0.08 µM | GGPT inhibition at the concentration in parentheses ([3]; (34) μM): 7 (34) |
| O=C(CN1CCS(=O)(=O)CC1)N1CCC(=C2c3ccc(Cl)cc3CCc3cc(Br)cnc32)CC1 [Example 410-G] | – | 0.21 µM | – | – | 4 µM | 0.21 µM | GGPT inhibition at the concentration in parentheses ([3]; (33) μM): 32 (33) |
| O=C(Cc1cc[n+]([O-])cc1)N1CCC(=C2c3ccc(Cl)cc3C=Cc3cc(Br)cnc32)CC1 [Example 417-B] | – | – | > 25 µM | < 1.6 µM | – | 0.14 µM | GGPT inhibition at the concentration in parentheses ([3]; (32) μM): 15 (32) |
